Assay [1] relates to external segments of photoreceptor cells. Description: Ascorbate-induced peroxidation of external segments of photoreceptor cells. Format: biochemical, pig. As to conditions: for Inhibition: 30 min of reacting; for Concentration of TBK-active products: 17 mM compound, 0.5 mM ascorbic acid. The source says: The external segments of photoreceptor cells are obtained from pig retinas according to standard procedure, using methods of differential centrifuging in a saccharose density gradient. […] Subsequently, the process was stopped by 15% trichloroacetic acid, and the concentration of TBK-active products has been determined. Samples being free of compound Ic were used as a control.
In these experiments a comparison of the speed of ascorbate-induced peroxidation of external segments of photoreceptor cells of pig eyes has been carried out, said comparison being determined with respect to the accumulation of TBK-active products in the presence of different compound I salts.

The test system of assay [2] is lipofuscin induced cardiolipin photoperoxidation. Description: Inhibition of lipofuscin induced cardiolipin liposome photoperoxidation. Format: biochemical, human. As to conditions: for Concentration of TBK-active products / Inhibition: 2 mM compound. How it is done:
Liposomes are prepared from methanolic solution of cardiolipin (initial concentration: 5 mg/ml) by evaporation of methanol and solubilization of cardiolipin in a phosphate buffer. A mixture comprising a suspension of liposomes and lipofuscin granules, isolated from tissue of a retinal pigmentary epithelium of a human eye, is subjected to irradiation with intensive blue light under constant stirring. Concentration of lipid peroxidation products (TBK-active products) is determined after 20, 40, 60 and 90 minutes. The experimental sample contained 2 mM of a solution of compound Ic, or 2 mM of a solution of mexydole.

The nature of assay [3]: Antiradical activity by chemiluminescence (rate constant k7). To be noted: speed constant of reaction with ethyl-benzene peroxide radicals. The class given is physicochemical. How it is done: The efficiency of 3-hydroxypyridine derivatives as inhibitors of free radical reactions was determined by hemiluminescent method by means of measurement of speed constants of their reaction with ethyl-benzene k7 peroxide radicals.
The measurements of intensity of chemiluminescence (HL) have been carried out with an apparatus CNK-7, designed and made by IHF RAN USSR. A photomultiplier FAU-38 is used as an optical receiver. The fixed concentration of radicals during oxidation of […] (cumole) is controlled by an initiator being azo-bis-isobutyronitrile.
In order to increase HL emission the activator chelate Eu (europium tristenoyl triphtoroacetonate with 1,10-phenatroline) has been used that has allowed to conduct measurements at low speed values of radical initiation (W1=10^−8-10^−9 mol/I.s.) and, therefore, at small amounts of added sample. A weighed amount of samples studied was diluted in an suitable solvent (chlorobenzene or acetonitrile) and a small amount of the prepared solution (0.1-0.25 ml) was added to the reaction mixture (5-6 ml), arranged in a temperature-controlled reaction vessel of the HL-device. The change of emission intensity was recorded.

Assay [4] relates to acute myocardial ischemia (occlusion of the coronary artery of rats). The assay can be described thus: Sizes of necrosis and ischemia zones in acute myocardial ischemia. Format: in vivo, rat. As to conditions: rats, within 4 hours after occlusion of the coronary artery. How it is done: The experiments are carried out with non-pedigree male rats having a weight of 250-300 g, which have been anesthetized with sodium ethaminale (40 mg/kg intraperitoneally). A myocardial infarction was modeled for animals, transferred to controlled breathing, by ligation of a descending branch of the left-hand coronary artery to a level of the lower edge of an auricula atrii.
The sizes of necrosis zones and ischemia zones have been determined within 4 hours after occlusion of the coronary artery by a differential indicator method, the principle of which is based on separate quantitative determination of Evans' blue (indicator of an ischemia zone) and red phormazane (indicator of an necrosis zone).

A word on the Inhibition: it is the drop in the measured response relative to a control, in per cent. For `Cc1cc(C)c(O)c(C)n1.O=C(O)CC(=O)O` [Compound Ib, 2,4,6-trimethyl-3-oxypyridine malonate], the “Speed of accumulation of TBK-active products for 30 min of reacting” value (shortened to “Speed”) in assay [1] (compound 44 mM) came to 0.23 nmol/mg. The molecule also came in with an Inhibition in assay [1] (compound 44 mM) of 70%. The results for the “Concentration of TBK-active products” value in assay [1] (response time 0 min), in assay [1] (response time 15 min) and in assay [1] (response time 30 min) were 1 relative units, 2.70 relative units and 5.09 relative units, respectively.
For `Cc1cc(C)c(O)c(C)n1.O=C(O)CC(O)C(=O)O` [Compound Id, 2,4,6-trimethyl-3-oxypyridine malate], in assay [1] (compound 43 mM), the “Speed” value is listed as 0.1 nmol/mg and the Inhibition turned out to be 87%.
With `CCc1ccc(O)c(C)n1.O=C(O)CCC(=O)O` [Mexydole, 2-methyl-6-ethyl-3-hydroxypyridine succinate, reference compound], the “Concentration of TBK-active products” value is recorded as 1.83 nmol/mg lipid in assay [2] (radiation time 0 min); 2.84 nmol/mg lipid in assay [2] (radiation time 20 min); 3.5 nmol/mg lipid in assay [2] (radiation time 40 min); 4.5 nmol/mg lipid in assay [2] (radiation time 60 min); 5.0 nmol/mg lipid in assay [2] (radiation time 90 min). In addition, the Inhibition in assay [2] (radiation time 0 min) is 0%; in assay [2] (radiation time 20 min), 5%; in assay [2] (radiation time 40 min) it was 0%; in assay [2] (radiation time 60 min), 0%; in assay [2] (radiation time 90 min), 7%. Further, the “Inhibiting / protective effect regarding phototoxic action of lipofuscin granules” value in assay [2] (result in words) was “practically did not show an inhibiting effect”. The “k7 × 10^−4” value in assay [3] is recorded as 4.5 l/mol × sec. Moreover, the “Ratio of necrosis zone to ischemia zone” value in assay [4] (26 mg/kg) came to 46 ± 5.6%. The “Ratio of necrosis zone to total mass of the myocardium” value in assay [4] (26 mg/kg) was 8 ± 1.4%.
`O=C(NCCO[N+](=O)[O-])c1cccnc1` [Nicorandile]: in assay [4] (12 mg/kg), the “Ratio of necrosis zone to ischemia zone” value is on record as 42 ± 5.4% and the “Ratio of necrosis zone to total mass of the myocardium” value turned out to be 10 ± 1.6%.
Take `Cc1cc(C)c(O)c(C)n1.O=C(O)C(=O)O` [Compound Ia, 2,4,6-trimethyl-3-oxypyridine oxalate]: in assay [1] (compound 44 mM), the “Speed” value is listed as 0 nmol/mg and the Inhibition worked out at 100%.

Values taken from patent publication US20110045065A1, “SUBSTANCE HAVING ANTIOXIDANT, GEROPROTECTIVE AND ANTI-ISCHEMIC ACTIVITY AND METHOD FOR THE PREPARATION THEREOF” (priority 2005, published 2011).
